In brackets after ≈: the same amount, converted by molar mass. Where a name gives a salt, the structure may show the parent alone.
Columns and labels:
Candida albicans A25578 = assay: In vitro antifungal activity, serial agar dilution method (Table 1a); format: cell-based; details: A25578, YM agar (pH 7.0, Difco), 30°C for 2 days (yeast) or 4 days (filamentous fungi), read-out: MICs, Candida albicans A25578
Method: (§1) The inoculum size was adjusted to 10⁶ cells/ml, and a volume of approximately 0.003 ml of fungal suspension was applied to the surface of the antibiotic containing agar plates with a multiinoculator. After incubation, the lowest concentration of antibiotic causing virtually complete inhibition of fungal growth was determined as the minimum inhibitory concentration (MIC).

Candida albicans A9540 [1] = assay: as above; format: cell-based; details: A9540, YM agar (pH 7.0, Difco), 30°C for 2 days (yeast) or 4 days (filamentous fungi), read-out: MICs, Candida albicans A9540
Method: as §1

[2] = test system: Candida paratropicalis A25825; assay: as above; format: cell-based; details: YM agar (pH 7.0, Difco); 30°C for 2 days (yeast) or 4 days (filamentous fungi); read-out: MICs, Candida paratropicalis A25825
Method: as §1

[3] = test system: Candida pseudotropicalis A25802; assay: as above; format: cell-based; details: Kluyveromyces marxianus, YM agar (pH 7.0, Difco), 30°C for 2 days (yeast) or 4 days (filamentous fungi), read-out: MICs, Candida pseudotropicalis A25802
Method: as §1

[4] = test system: Candida tropicalis A25812; assay: as above; format: cell-based; details: A25812, YM agar (pH 7.0, Difco), 30°C for 2 days (yeast) or 4 days (filamentous fungi), read-out: MICs, Candida tropicalis A25812
Method: as §1

[5] = test system: Cryptococcus neoformans A15053; assay: as above; format: cell-based; details: A15053, YM agar (pH 7.0, Difco), 30°C for 2 days (yeast) or 4 days (filamentous fungi), read-out: MICs, Cryptococcus neoformans A15053
Method: as §1

[6] = test system: Saccharomyces cerevisiae A25803; assay: as above; format: cell-based; details: YM agar (pH 7.0, Difco), 30°C for 2 days (yeast) or 4 days (filamentous fungi), read-out: MICs, Saccharomyces cerevisiae A25803
Method: as §1

M. gypseum A22810 = assay: In vitro antifungal activity, serial agar dilution method (Table 1a, footnote strain 1); format: cell-based, Microsporum gypseum; details: Nannizzia gypsea, strain per footnote **1, YM agar (pH 7.0, Difco), 30°C for 2 days (yeast) or 4 days (filamentous fungi), read-out: MICs, M. gypseum A22810
Method: as §1

T. rubrum A24195 = assay: In vitro antifungal activity, serial agar dilution method (Table 1a, footnote strain 2); format: cell-based; details: Trichophyton rubrum, A24195, pH 7, read-out: MICs, T. rubrum A24195
Method: as §1

T. mentagrophytes A22838 = assay: In vitro antifungal activity, serial agar dilution method (Table 1a, footnote strain 3); format: cell-based; details: Trichophyton mentagrophytes, strain per footnote **3, YM agar (pH 7.0, Difco), 30°C for 2 days (yeast) or 4 days (filamentous fungi), read-out: MICs, T. mentagrophytes A22838
Method: as §1

M. canis A22494 = assay: In vitro antifungal activity, serial agar dilution method (Table 1a, footnote strain 6); format: cell-based; details: Microsporum canis, A22494, pH 7, read-out: MICs, M. canis A22494
Method: as §1

[7] = test system: Candida tropicalis A25809; assay: In vitro antifungal activity, serial agar dilution method (Table 1a); format: cell-based; details: YM agar (pH 7.0, Difco), 30°C for 2 days (yeast) or 4 days (filamentous fungi), read-out: MICs, Candida tropicalis A25809
Method: as §1

[8] = test system: Microsporum canis WW10218; assay: as above; format: cell-based; details: WW10218, pH 7, read-out: MICs, Microsporum canis WW10218
Method: as §1

[9] = test system: Microsporum gypseum WW1107; assay: as above; format: cell-based; details: Nannizzia gypsea, YM agar (pH 7.0, Difco), 30°C for 2 days (yeast) or 4 days (filamentous fungi), read-out: MICs, Microsporum gypseum WW1107
Method: as §1

[10] = test system: Trichophyton mentagrophytes A26771; assay: as above; format: cell-based; details: A26771, YM agar (pH 7.0, Difco), 30°C for 2 days (yeast) or 4 days (filamentous fungi), read-out: MICs, Trichophyton mentagrophytes A26771
Method: as §1

[11] = test system: Trichophyton rubrum A26761; assay: as above; format: cell-based; details: A26761, pH 7, read-out: MICs, Trichophyton rubrum A26761
Method: as §1

Candida albicans A9540 [12] = assay: Intravenous Candida albicans infection mouse model, Table 2 part B; format: in vivo, mice
Method: Several compounds were also evaluated in an intravenous Candida albicans […] infection mouse model. The test organism was suspended in saline approximately 10 times the median lethal dose of the fungus (10⁶ cells/mouse) were used to infect intravenously male ICR mice weighing 20 to 24 g. Groups of five mice at each dose level were given the test compounds intravenously or intramuscularly. The 50% protective dose (PD₅₀) was calculated from survival rates recorded 20 or 21 days after the fungal challenge. […]

[13] = Water solubility, protocol I (PBS, HPLC); format: physicochemical; details: Method I: PBS without CaCl₂ and MgCl₂.6H₂O
Method: The supernatant (2 µL) was analyzed by HPLC using the conditions specified for each compound in the Experimental Section. […] When not soluble, an additional amount of PBS (x µL) was added, sonicated, and centrifuged. When visibly soluble, the solution (2 µL) was injected to HPLC and the peak area was used for the known concentration of the sample.

M. gypseum A26835 = assay: In vitro antifungal activity, serial agar dilution method (Table 1a, footnote strain 4); format: cell-based, Microsporum gypseum; details: Nannizzia gypsea, A26835; strain per footnote **4; YM agar (pH 7.0, Difco); 30°C for 2 days (yeast) or 4 days (filamentous fungi); read-out: MICs, M. gypseum A26835
Method: as §1

M. canis A26834 = assay: In vitro antifungal activity, serial agar dilution method (Table 1a, footnote strain 5); format: cell-based; details: Microsporum canis, A26834, pH 7, read-out: MICs, M. canis A26834
Method: as §1

Compound	MIC (Candida albicans A25578) [µg/mL]	MIC (Candida albicans A9540 [1]) [µg/mL]	MIC [2] [µg/mL]	MIC [3] [µg/mL]	MIC [4] [µg/mL]	MIC [5] [µg/mL]	MIC [6] [µg/mL]	MIC [7] [µg/mL]	MIC [8] [µg/mL]	MIC [9] [µg/mL]	MIC [10] [µg/mL]	MIC [11] [µg/mL]	PD₅₀ (Candida albicans A9540 [12]; mouse, in vivo) [mg/kg]	solubility [13] [µg/mL]	further results
COc1cc(O)c2c(c1)C(=O)c1c(cc3c(c1O)-c1c(cc(C)c(C(=O)N[C@H](C)C(=O)O)c1O)[C@H](O[C@@H]1O[C@H](C)[C@H](N(C)C(=O)[C@@H](N)CCC(=O)O)[C@H](O)[C@H]1O)[C@H]3O)C2=O [Ex. 20, N-(L-glutamyl) pradimicin B formate salt]	12.5	25	25	6.3	25	50	6.3								MIC (M. gypseum A22810): 12.5 µg/mL; MIC (T. rubrum A24195): 12.5 µg/mL; MIC (T. mentagrophytes A22838): 12.5 µg/mL; MIC (M. canis A22494): 12.5 µg/mL
C=CCN(C)[C@@H]1[C@H](O)[C@@H](O)[C@H](O[C@H]2c3cc(C)c(C(=O)N[C@H](C)C(=O)O)c(O)c3-c3c(cc4c(c3O)C(=O)c3cc(OC)cc(O)c3C4=O)[C@@H]2O)O[C@@H]1C [Ex. 21, N-(Allyl) pradimicin B]	0.8 (≈ 1.07 µM)	3.2 (≈ 4.27 µM)	6.3 (≈ 8.41 µM)	0.8 (≈ 1.07 µM)	6.3 (≈ 8.41 µM)	1.6 (≈ 2.14 µM)	0.8 (≈ 1.07 µM)	1.6 (≈ 2.14 µM)	3.2 (≈ 4.27 µM)	12.5 (≈ 16.7 µM)	3.2 (≈ 4.27 µM)	3.2 (≈ 4.27 µM)	>50	2000 (≈ 2670 µM)	
C#CCN(C)[C@@H]1[C@H](O)[C@@H](O)[C@H](O[C@H]2c3cc(C)c(C(=O)N[C@H](C)C(=O)O)c(O)c3-c3c(cc4c(c3O)C(=O)c3cc(OC)cc(O)c3C4=O)[C@@H]2O)O[C@@H]1C [Ex. 23, N-(Propargyl) pradimicin B]	1.6 (≈ 2.14 µM)	50 (≈ 67 µM)	> 50	1.6 (≈ 2.14 µM)	50 (≈ 67 µM)	1.6 (≈ 2.14 µM)	0.8 (≈ 1.07 µM)	1.6 (≈ 2.14 µM)	25 (≈ 33.5 µM)	50 (≈ 67 µM)	25 (≈ 33.5 µM)	25 (≈ 33.5 µM)	>50	500 (≈ 670 µM)	
COc1cc(O)c2c(c1)C(=O)c1c(cc3c(c1O)-c1c(cc(C)c(C(=O)N[C@H](C)C(=O)O)c1O)[C@H](O[C@@H]1O[C@H](C)[C@H](N(C)Cc4ccccc4)[C@H](O[C@@H]4OC[C@@H](O)[C@H](O)[C@H]4O)[C@H]1O)[C@H]3O)C2=O [Ex. 24, N-(Benzyl) pradimicin A]	> 50	> 50	> 50	12.5 (≈ 13.4 µM)	> 50	1.6 (≈ 1.72 µM)					3.2 (≈ 3.44 µM)	3.2 (≈ 3.44 µM)			MIC (M. gypseum A26835): 50 µg/mL (≈ 53.7 µM); MIC (M. canis A26834): 25 µg/mL (≈ 26.9 µM)
CN[C@@H]1[C@H](O)[C@@H](O)[C@H](O[C@H]2c3cc(C)c(C(=O)N[C@H](C)C(=O)O)c(O)c3-c3c(cc4c(c3O)C(=O)c3cc(OC)cc(O)c3C4=O)[C@@H]2O)O[C@@H]1C [Pradimicin B, reference compound]	1.6 (≈ 2.26 µM)	3.2 (≈ 4.52 µM)	3.2 (≈ 4.52 µM)	0.8 (≈ 1.13 µM)	3.2 (≈ 4.52 µM)	0.8 (≈ 1.13 µM)	0.8 (≈ 1.13 µM)	0.8 (≈ 1.13 µM)	3.2 (≈ 4.52 µM)	12.5 (≈ 17.6 µM)	3.2 (≈ 4.52 µM)	3.2 (≈ 4.52 µM)		70 (≈ 98.8 µM)	PD₅₀ (Candida albicans A9540 [12]; Part B: route IM, at 1 and 3.5 hrs after infection and twice on the following day, 21 days after fungal challenge, method of Spearman-Karber, male ICR mice): >50 mg/kg; PD₅₀ (Candida albicans A9540 [12]; Part B: route IV, at 1 and 3.5 hrs after infection and twice on the following day, 21 days after fungal challenge, method of Spearman-Karber, male ICR mice): 32 mg/kg

From EP0428132A1, “Pradimicin derivatives” (Bristol-Myers Squibb Company, priority 1989, dated 1991)
